Measured values from patent US7875745B2, “Compounds having lysophosphatidic acid receptor antagonism and uses thereof” (Ono Pharmaceutical Co., Ltd., priority 2003, dated 2011).

Columns and labels:
[1] = target: T1, human EDG-2 (Homo sapiens, UniProt Q92633); experiment: Evaluation of EDG-2 antagonistic activity by monitoring the change of intracellular calcium ion concentration; type: cell-based; conditions: CHO cells overexpressing human EDG-2 gene; LPA 100 nM; intracellular calcium (Fura2-AM)
T1 construct: expressed in transfected cells; host or cells: Chinese hamster ovary (CHO) cells
Procedure: Evaluation of EDG-2 Antagonistic Activity by Monitoring the Change of Intracellular Calcium Ion Concentration:
The EDG-2 antagonistic activity was evaluated by using Chinese hamster ovary (CHO) cells which overexpressed human EDG-2 gene. The EDG-2-expressing cells were cultured with Ham's F12 medium (manufactured by GIBCO BRL, No. 11765-047) containing 10% FBS (fetal bovine serum), penicillin/streptomycin and blasticidin (5 μg/ml). Firstly, in order to incorporate Fura2-AM (manufactured by Dojindo, No. 348-05831) into the cells, the cells were incubated in 5 μM Fura2-AM solution (10% FBS, 20 mM HEPES buffer (pH 7.4), 2.5 mM probenecid (manufactured by Sigma, No. P-8761)-containing Ham's F12 medium) at 37° C. for 60 minutes. […] A plate was set in a fluorescence drug screening system (manufactured by Hamamatsu Photonics K.K., FDSS-2000, FDSS-6000) and intracellular calcium ion concentration was measured for 30 seconds without stimulation, and a solution of the compound of present invention was added. Five minutes thereafter, LPA (final concentration: 100 nM) was added, and the intracellular calcium ion concentration before and after the addition at the interval of 3 seconds (excitation wavelength: 340 nm and 380 nm, fluorescence wavelength: 500 nm). […]

[2] = tested on: urethral pressure of rats; experiment: Effect on urethral pressure of rats (in vivo); parameters: species or system rat; conditions: anesthetized male CD(SD)IGS rats, intravenous, dose of 0.1 mg/kg to 1 mg/kg
Description: Effect on Urethral Pressure of Rats (in vivo):
Male CD(SD)IGS rats (Japan Charles River, 8 to 9-week-old at the use) were anesthetized by subcutaneous administration of urethane (1.2 g/kg). After dissection at the cervical midline, a jugular vein catheter for compound administration and an artery catheter for blood pressure measurement were inserted. Next, after dissection at the hypogastric midline, the urethra was ligated under the pubic bone. An urethra catheter for urethral pressure measurement was inserted into the urethra from the dissected the top of the bladder, and ligated and fixed at the bladder neck. Each of the urethra catheter and the artery catheter was connected with a pressure-transducer, and the urethral pressure and blood pressure were measured. […] Then, the test compound was intravenously administered, and the urethral pressure and blood pressure were measured for 20 minutes. […]
The test compound was administered at respective doses. […] For the evaluation of the effect of the test compound on the urethral pressure, the values subtracting the urethral pressure before the administration from the measured urethral pressures every 2 minutes after the administration were obtained and a graph of the change with time (decreased amount of the urethral pressure from the base line) was prepared.

T1 sequence (Q92633 whole entry): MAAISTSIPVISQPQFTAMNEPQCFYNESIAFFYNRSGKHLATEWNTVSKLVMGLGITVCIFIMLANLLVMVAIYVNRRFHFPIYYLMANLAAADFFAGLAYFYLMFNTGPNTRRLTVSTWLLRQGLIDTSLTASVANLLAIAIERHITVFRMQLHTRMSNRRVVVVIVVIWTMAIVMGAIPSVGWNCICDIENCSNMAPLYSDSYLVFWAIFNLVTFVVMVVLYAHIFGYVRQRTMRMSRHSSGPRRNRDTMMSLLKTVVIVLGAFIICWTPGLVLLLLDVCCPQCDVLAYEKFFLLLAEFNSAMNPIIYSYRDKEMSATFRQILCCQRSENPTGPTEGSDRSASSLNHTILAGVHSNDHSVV

Structure (SMILES): COc1cc([C@@H](O)[C@@H](CCCc2ccccc2)Cc2ccc(CC(=O)O)cc2)cc(OC)c1OC [Example 20(2), (4-{(2S)-2-[(S)-hydroxy(3,4,5-trimethoxyphenyl)methyl]-5-phenylpentyl}phenyl)acetic acid]
- IC50 [1]: 40 nM
- change of the urethral pressure after administration [2]: significantly remarkable decrease of the urethral pressure
- maximum decreased amount of the urethral pressure, of the absolute value of the urethral pressure (pressure before administration - base line value after death) [2]: 30 to 40%
